Legend:
human PPARγ1 = molecular target: T1, human PPARγ1 (Homo sapiens, UniProt P37231); test: Human PPARγ1 antagonist assay (luciferase reporter in PPARγ:RXRα:4ERPP/CHO-K1 cells); type: cell-based; conditions: 10 nM compound A as stimulant, luciferase activity, 24 hrs, read-out: Inhibitory rate (%); for inhibition at 1 µM: test compound 10^−6 M
T1 construct: expressed in transfected cells; host or cells: CHO-K1 cells stably transfected with pVgRXR2-hPPARγ and reporter plasmid pGL3-4ERPP-TK neo
T1 sequence (P37231 1-477 isoform P37231-2): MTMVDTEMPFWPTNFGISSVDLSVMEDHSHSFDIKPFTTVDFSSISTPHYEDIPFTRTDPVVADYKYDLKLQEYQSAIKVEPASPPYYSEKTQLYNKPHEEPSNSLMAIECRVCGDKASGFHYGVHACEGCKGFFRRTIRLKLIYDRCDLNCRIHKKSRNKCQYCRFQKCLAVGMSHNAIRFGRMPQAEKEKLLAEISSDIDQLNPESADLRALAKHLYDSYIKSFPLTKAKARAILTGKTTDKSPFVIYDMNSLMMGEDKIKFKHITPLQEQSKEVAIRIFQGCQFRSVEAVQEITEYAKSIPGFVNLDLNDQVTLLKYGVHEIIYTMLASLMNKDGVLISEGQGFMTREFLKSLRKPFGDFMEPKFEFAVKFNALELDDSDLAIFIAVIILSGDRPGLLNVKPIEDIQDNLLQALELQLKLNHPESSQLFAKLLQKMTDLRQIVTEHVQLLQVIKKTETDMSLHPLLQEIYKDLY
T1 sequence (P19793 1-462 partner): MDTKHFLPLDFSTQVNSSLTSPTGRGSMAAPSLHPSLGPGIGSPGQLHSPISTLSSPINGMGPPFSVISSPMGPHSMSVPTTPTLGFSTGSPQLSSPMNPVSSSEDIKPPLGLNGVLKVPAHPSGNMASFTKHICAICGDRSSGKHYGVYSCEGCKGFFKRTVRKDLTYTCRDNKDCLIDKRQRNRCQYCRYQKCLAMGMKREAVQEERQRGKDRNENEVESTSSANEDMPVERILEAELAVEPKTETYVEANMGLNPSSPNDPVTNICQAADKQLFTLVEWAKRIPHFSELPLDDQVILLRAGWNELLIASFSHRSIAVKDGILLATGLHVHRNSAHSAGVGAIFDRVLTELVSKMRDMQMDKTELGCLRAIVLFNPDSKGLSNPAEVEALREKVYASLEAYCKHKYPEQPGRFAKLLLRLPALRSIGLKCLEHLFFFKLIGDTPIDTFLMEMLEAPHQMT

| Compound | inhibition at 1 µM (human PPARγ1) | melting point | inhibition at 10 µM (human PPARγ1; test compound 10^−5 M) |
| --- | --- | --- | --- |
| COc1cc(COc2nn(-c3ccccc3)cc2/C=C/C#N)ccc1OCc1nc(-c2ccccc2)oc1C [Example 282, (E)-3-(3-{[3-methoxy-4-(5-methyl-2-phenyl-1,3-oxazol-4-ylmethoxy)benzyl]oxy}-1-phenyl-1H-pyrazol-4-yl)-2-propenonitrile] | 69% | 184 to 185 °C |  |
| CCOC(=O)/C=C/c1cn(-c2ccccc2)nc1OCc1ccc(OCc2nc(-c3ccccc3)oc2C)c(OC)c1 [Example 284, ethyl (E)-3-(3-{[3-methoxy-4-(5-methyl-2-phenyl-1,3-oxazol-4-ylmethoxy)benzyl]oxy}-1-phenyl-1H-pyrazol-4-yl)-2-propenoate] | 107% | 194 to 195 °C |  |
| CCc1nc(/C=C/c2cn(-c3ccccc3)nc2OCc2ccc(OCc3nc(-c4cccc(C(=O)O)c4)oc3C)c(OC)c2)co1 [Example 307] | 108% | 169 to 171 °C |  |
| CCOP(=O)(/C=C/c1cn(-c2ccccc2)nc1OCc1ccc(OCc2nc(/C=C/C(=O)O)oc2C)c(OC)c1)OCC [Example 315, (2E)-3-[4-({4-[({4-[(E)-2-(diethoxyphosphoryl)ethenyl]-1-phenyl-1H-pyrazol-3-yl}oxy)methyl]-2-methoxyphenoxy}methyl)-5-methyl-1,3-oxazol-2-yl]-2-propenoic acid] |  | 89 to 90 °C | 112% |
| CCn1cnc(/C=C/c2cn(-c3ccccc3)nc2OCc2ccc(OCc3nc(-c4ccc(CC(=O)O)cc4)oc3C)c(OC)c2)c1 [Example 344, (4-{4-[(4-[({4-[(E)-2-(1-ethyl-1H-imidazol-4-yl)ethenyl]-1-phenyl-1H-pyrazol-3-yl}oxy)methyl]-2-methoxyphenoxy)methyl]-5-methyl-1,3-oxazol-2-yl}phenyl)acetic acid] | 103% | 194 to 196 °C |  |

— patent publication US7368578B2, “Five-membered heterocyclic compounds” (Takeda Pharmaceutical Company Limited, priority 2002, dated 2008)
